In PubChem BioAssay (NCI):
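Values below derive from 48-hour exposures of cells grown in 96-well plates, with endpoints linearly interpolated between the two concentrations bracketing the appropriate inhibition level. GI50 is the concentration that inhibits growth by half. The concentration for full growth arrest is given as TGI.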

Legend:
Experiment in all cases: inhibition of tumour cell growth, NCI panel, 48 h
[1] = test system: A498 renal
[2] = test system: COLO 205 colon
[3] = test system: HCT-116 colon
[4] = test system: IGROV1 ovarian
[5] = test system: MOLT-4 leukemia
[6] = test system: NCI-H23 lung
[7] = test system: SK-MEL-5 melanoma
[8] = test system: SN12C renal
[9] = test system: SNB-75 CNS
[10] = test system: MDA-N

CCN(CC)CCCC(C)Nc1ccnc2cc3ccccc3cc12 (stereo not drawn)
TGI [1]: 39.9 µM
TGI [2]: 11.7 µM
TGI [3]: > 100 µM
TGI [4]: 50.7 µM
TGI [5]: > 100 µM
TGI [6]: 96.7 µM
TGI [7]: 37.1 µM
TGI [8]: > 100 µM
TGI [9]: 20.1 µM

O=C(C[C@H](NC(=O)OCc1ccccc1)C(=O)NC1Cc2ccccc2OC1=O)OCc1ccccc1 (stereo partly drawn)
TGI [1]: > 100 µM
TGI [2]: > 100 µM
TGI [3]: 76.3 µM
TGI [4]: > 100 µM
TGI [10]: > 100 µM
TGI [5]: > 100 µM
TGI [6]: > 100 µM
TGI [7]: > 100 µM
TGI [8]: > 100 µM
TGI [9]: > 100 µM

Cc1ccc(NP(=O)(Oc2ccccc2)N(CCCl)CCCl)cc1 (stereo not drawn)
TGI [1]: > 100 µM
TGI [2]: > 100 µM
TGI [3]: > 100 µM
TGI [4]: > 100 µM
TGI [5]: > 100 µM
TGI [6]: > 100 µM
TGI [7]: > 100 µM
TGI [8]: > 100 µM
TGI [9]: > 100 µM

OC1(c2ccc(Cl)cc2)c2c(ccc3c2OCO3)C2=NCCN21 (stereo not drawn)
TGI [1]: 48.2 µM
TGI [2]: 33 µM
TGI [3]: > 100 µM
TGI [4]: 54.9 µM
TGI [10]: 87.4 µM
TGI [5]: > 100 µM
TGI [6]: > 100 µM
TGI [7]: 32.1 µM
TGI [8]: > 100 µM
TGI [9]: 59 µM

O=C(O)c1cc(=O)[nH]c(SCc2ccccc2)n1
TGI [1]: > 100 µM
TGI [3]: > 100 µM
TGI [4]: > 100 µM
TGI [10]: > 100 µM
TGI [5]: > 100 µM
TGI [6]: > 100 µM
TGI [7]: > 100 µM
TGI [8]: > 100 µM
TGI [9]: > 100 µM

CC(C)CCC[C@@H](C)[C@H]1CC[C@H]2[C@@H]3CC[C@H]4C[C@H](N)CC[C@]4(C)[C@H]3CC[C@]12C
TGI [1]: 57.5 µM
TGI [2]: 56.3 µM
TGI [3]: > 100 µM
TGI [4]: 54.3 µM
TGI [10]: > 100 µM
TGI [5]: > 100 µM
TGI [6]: > 100 µM
TGI [7]: 54.3 µM
TGI [8]: > 100 µM
TGI [9]: 57.1 µM

COc1ccc(C2CC(c3cccc(Nc4ccncc4)c3)=NN2c2ccc(Cl)cc2)cc1 (stereo not drawn)
GI50 [1]: 1520 nM
TGI [1]: 8.16 µM
GI50 [2]: 1780 nM
TGI [2]: 3.76 µM
GI50 [3]: 1650 nM
TGI [3]: 3.36 µM
GI50 [4]: 1680 nM
TGI [4]: 3.28 µM
GI50 [5]: 1810 nM
TGI [5]: 4.1 µM
GI50 [6]: 1810 nM
TGI [6]: 3.43 µM
GI50 [7]: 1770 nM
TGI [7]: 3.18 µM
GI50 [8]: 1600 nM
TGI [8]: 3.07 µM
GI50 [9]: 1410 nM
TGI [9]: 3.01 µM

Cc1cccc2cc3c(ccc4ccccc43)c[n+]12
TGI [2]: 31.6 µM
TGI [3]: > 100 µM
TGI [4]: > 100 µM
TGI [10]: > 100 µM
TGI [5]: > 100 µM
TGI [6]: 58 µM
TGI [7]: 22.1 µM
TGI [8]: 20.3 µM
TGI [9]: 21.8 µM

N#Cc1c(NC(=S)Nc2ccc(Cl)cc2)sc2c1CCCC2
TGI [1]: > 100 µM
TGI [2]: > 100 µM
TGI [3]: > 100 µM
TGI [4]: > 100 µM
TGI [10]: > 100 µM
TGI [5]: 33.8 µM
TGI [6]: > 100 µM
TGI [7]: > 100 µM
TGI [8]: 50.4 µM
TGI [9]: > 100 µM

CC(=O)Oc1c(C)c2c(O)c3c1C1=C(OCOC1=C(C)C3=O)/C(C)=C\C(C)(O)C(O)C(C)C(O)C1C(=O)OC(C(C)C1O)C(C)(O)/C=C/C=C(C)C(=O)N2 (stereo not drawn)
TGI [1]: > 100 µM
TGI [2]: > 100 µM
TGI [3]: > 100 µM
TGI [4]: 52.7 µM
TGI [10]: > 100 µM
TGI [5]: > 100 µM
TGI [6]: > 100 µM
TGI [7]: > 100 µM
TGI [8]: > 100 µM
TGI [9]: > 100 µM

CSc1nc(NC2OCC(OC(C)=O)C(OC(C)=O)C2OC(C)=O)c(N=C(C)C(C)=O)c(=O)[nH]1 (stereo not drawn)
TGI [1]: > 100 µM
TGI [2]: > 100 µM
TGI [3]: > 100 µM
TGI [4]: > 100 µM
TGI [5]: > 100 µM
TGI [6]: > 100 µM
TGI [7]: > 100 µM
TGI [8]: > 100 µM
TGI [9]: > 100 µM

O=S1(=O)C(c2ccccc2)C(N2CCCCC2)C1C1CC2c3ccccc3C1c1ccccc12 (stereo not drawn)
TGI [1]: > 100 µM
TGI [2]: > 100 µM
TGI [3]: > 100 µM
TGI [4]: > 100 µM
TGI [10]: > 100 µM
TGI [5]: > 100 µM
TGI [6]: > 100 µM
TGI [7]: > 100 µM
TGI [8]: > 100 µM
TGI [9]: > 100 µM
